Laboratory results published in patent US7112698B2, “4-(c2-6alkoxy)-substituted chalcones as therapeutic agents” (Spear Therapeutics Limited, priority 2001, dated 2006).
Where two headings read alike, the source gives them in different places.

How the values were obtained:
[1] = system: MCF-7 cells; test: MCF-7 cell line (non-induced) cytotoxicity assay, MTT; format: cell-based; details: Homo sapiens, MCF7
From the text: (§1) CYP1A1 and CYP1B1 enzyme activity is induced by TCDD (tetrachlorodibenzodioxin (Dioxin)) in breast tumour MCF-7 cells (see, e.g., Sutter et al., 1994). CYP1B1 is expressed in a variety of human tumours, and can be inducible by TCDD in numerous cell types including breast, liver, lung, and kidney (see, e.g., Murray et al., 1997). CYP1B1 is known to catalyse estradiol 4-hydroxylation metabolism. In untreated culture, the constitutive rate of estradiol E2 metabolism in MCF-7 cells is minimal. However, treatment with TCDD causes a marked increase in the rate of E2 metabolism (see, e.g., Spink et al., 1994). […] Therefore the cytotoxicity of compounds in non-induced MCF-7 cells correlates to the cytotoxicity of compounds against normal cells, whilst the cytotoxicity of compounds against TCDD-induced MCF-7 cells correlates to the cytotoxicity of compounds against real tumours that express CYP1B1.
(§2) The cytotoxicity of compounds in non-induced MCF-7 cells correlates to the cytotoxicity of compounds against normal cells, whilst the cytotoxicity of compounds against TCDD-induced MCF-7 cells correlates to the cytotoxicity of compounds against real tumours that express CYP1B1.
(§3) Cells were maintained in RPMI 1640 with Glutamax 1 (Life Technologies) with 10% (v/v) heat inactivated foetal calf serum (Hybrimax. Sigma), at 37° C., 5% CO2/95% air with 100% humidity and passaged using trypsin/EDTA. 1×10^3 cells were plated out in 100 μl medium per well of 96-well flat-bottomed plates (Fisher). After 4 hours to allow adherance, 100 μl of medium containing TCDD (British Greyhound Chromatography; 10 μM stock in DMSO (dimethylsulfoxide)) or medium with 0.2% (v/v) DMSO as control was added to each well to give a final concentration of 10 nM TCDD, 0.1% (v/v) DMSO, for 24 hours to allow maximal CYP expression. The medium was then carefully aspirated and 100 μl fresh medium added. Within 30 minutes test compound was added in quadruplicate in 100 μl medium (with or without inhibitors) at double the final concentration from 100 mM stock in DMSO to give a final concentration of not more than 0.1% (v/v) DMSO, or DMSO solvent alone at 0.1% (v/v) as control. The cells were then allowed to grow on for 96 hours to give 80–90% confluence in the control wells. 50 μl MTT (Thiazol blue, Sigma) at 2 mg/ml in Dulbecco's phosphate buffered saline-A, was then added to each well for 3 hours. All medium was aspirated, then the formazan product generated by viable cells was solubilized with 150 μl DMSO. Plates were vortexed and the absorbance at 540 nm determined using a plate reader. Results were expressed as the percentage of 100% (control) proliferation and the IC50 calculated using the line of best fit for a sigmoidal dose response curve with variable slope using Graphpad Prizm software. All determinations were carried out in at least triplicate.

[2] = system: TCDD-induced MCF-7 cells; test: TCDD-induced MCF-7 cell line cytotoxicity assay, MTT; format: cell-based, human; details: for IC50: Homo sapiens, MCF7, MCF-7 cells induced with 10 nM TCDD for 24 hours, 96 hours, MTT; for Tumour Selectivity Differential Factor: MCF-7 IC50 versus TCDD-induced MCF-7 IC50 (Table 1); for more toxic to “tumour” cells than to “normal” cells: TCDD-induced MCF-7 versus MCF-7
From the text: as §1, §2
as §3, with “triplicate. […]” for “triplicate.”

[3] = system: MCF-10A normal breast cell line; test: MCF-10A normal cell line cytotoxicity assay; format: cell-based; details: Homo sapiens, without TCDD
Method: (§4) Cells were maintained in RPMI 1640 with Glutamax 1 (Life Technologies) with 10% (v/v) heat inactivated foetal calf serum (Hybrimax. Sigma), at 37° C., 5% CO2/95% air with 100% humidity and passaged using trypsin/EDTA. 1×10^3 cells were plated out in 100 μl medium per well of 96-well flat-bottomed plates (Fisher). […] The medium was then carefully aspirated and 100 μl fresh medium added. […] 50 μl MTT (Thiazol blue, Sigma) at 2 mg/ml in Dulbecco's phosphate buffered saline-A, was then added to each well for 3 hours. All medium was aspirated, then the formazan product generated by viable cells was solubilized with 150 μl DMSO. Plates were vortexed and the absorbance at 540 nm determined using a plate reader. […] All determinations were carried out in at least triplicate.
(§5) This cell culture based assay is performed using the two cell lines MDA-468 and MCF-10A. The MDA468 cell line is an advanced breast cancer cell line, whilst the MCF-10A cell line is a normal breast cell line.
(§6) This assay was performed using the two cell lines MDA-468 and MCF-10A according to the procedure described above for the MCF-7 assay, but without the addition of TCDD.
(§7) The tumour selectivity differential factor (TSDF) is calculated by dividing the IC50 obtained from the MCF-10A data by the IC50 obtained from the MDA-468 data.

[4] = system: MDA-468 advanced breast cancer cell line; test: MDA-468 tumour cell line cytotoxicity assay; format: cell-based, human; details: for IC50: Homo sapiens, without TCDD; for Tumour Selectivity Differential Factor: IC50 MCF-10A divided by IC50 MDA-468 (Table 2)
Method: as §4, §5, §6, §7

[5] = prodrug / hydroxylated metabolite illustration, read-out: IC50 in breast cancer MCF-7 cells
[6] = non-induced MCF-7 cells, 96 hours, MTT, read-out: MCF-7 Cells IC50

Row | Compound | IC50 [2] [µM] | Tumour Selectivity Differential Factor [2] | IC50 [1, 6] [µM] | further results
1 | COc1cc(OC)cc(C(=O)/C=C/c2ccc(OC)c(O)c2)c1 [(E)-1-(3-Hydroxy-4-methoxyphenyl)-3-(3,5-dimethoxyphenyl)prop-1-en-3-one, reference compound] |  |  |  | IC50 [1, 5]: 0.00065 µM
2 | COc1ccc(/C=C/C(=O)c2cc(OC)cc(OC)c2)cc1 [(E)-1-(4-methoxyphenyl)-3-(3,5-dimethoxyphenyl)prop-1-en-3-one, reference compound] |  |  |  | IC50 [1, 5]: 0.69 µM
3 | CCOc1ccc(/C=C/C(=O)c2cc(OC)cc(OC)c2)cc1 [DMU-174, (E)-1-(4-ethoxyphenyl)-3-(3,5-dimethoxyphenyl)prop-1-en-3-one] | 0.6 | 3 | 2 | 
4 | CCCCOc1ccc(/C=C/C(=O)c2cc(OC)cc(OC)c2)cc1 [DMU-176, (E)-1-(4-butoxyphenyl)-3-(3,5-dimethoxyphenyl)prop-1-en-3-one] | 1.1 | 18 | 20 | 
5 | CCCOc1ccc(/C=C/C(=O)c2cc(OC)cc(OC)c2)cc1O [DMU-185, (E)-1-(3-hydroxy-4-propoxyphenyl)-3-(3,5-dimethoxyphenyl)prop-1-en-3-one] | 0.66 | 12 | 8 | 
6 | CCCCOc1ccc(/C=C/C(=O)c2cc(OC)cc(OC)c2)cc1O [DMU-186, (E)-1-(3-hydroxy-4-butoxyphenyl)-3-(3,5-dimethoxyphenyl)prop-1-en-3-one] | 0.65 | 46 | 30 | more toxic to “tumour” cells than to “normal” cells [2]: 46 fold
7 | CCCOc1ccc(/C=C/C(=O)c2cc(OC)c(OC)c(OC)c2)cc1O [DMU-188, (E)-1-(3-hydroxy4-propoxyphenyl)-3-(3,4,5-trimethoxyphenyl)prop-1-en-3-one] | 0.6 | 8 | 4.5 | 
8 | CCCCOc1ccc(/C=C/C(=O)c2cc(OC)c(OC)c(OC)c2)cc1O [DMU-189, (E)-1-(3-hydroxy-4-butoxyphenyl)-3-(3,4,5-trimethoxyphenyl)prop-1-en-3-one] | 2.5 | 3 | 8.3 | 
9 | CCOc1ccc(/C=C/C(=O)c2cc(OC)c(OC)c(OC)c2)cc1 [DMU-190, (E)-1-(4-ethoxyphenyl)-3-(3,4,5-trimethoxyphenyl)prop-1-en-3-one] | 0.39 | 2 | 0.75 | 
10 | CCCOc1ccc(/C=C/C(=O)c2cc(OC)c(OC)c(OC)c2)cc1 [DMU-191, (E)-1-(4-propoxyphenyl)-3-(3,4,5-trimethoxyphenyl)prop-1-en-3-one] | 0.42 | 24 | 10 | more toxic to “tumour” cells than to “normal” cells [2]: 24 fold
11 | CCCCOc1ccc(/C=C/C(=O)c2cc(OC)c(OC)c(OC)c2)cc1 [DMU-192, (E)-1-(4-butoxyphenyl)-3-(3,4,5-trimethoxyphenyl)prop-1-en-3-one] | 1.6 | 12 | 20 | 
12 | COc1cc(OC)cc(C(=O)/C=C/c2ccc(OC(C)C)cc2)c1 [DMU-401, (E)-1-(4-isopropoxyphenyl)-3-(3,5-dimethoxyphenyl)prop-1-en-3-one] | 0.8 | 9 | 6.8 | 
13 | COc1cc(OC)cc(C(=O)/C=C/c2ccc(OC(C)(C)C)cc2)c1 [DMU-402, (E)-1-(4-tertbutoxyphenyl)-3-(3,5-dimethoxyphenyl)prop-1-en-3-one, reference compound] | 6.2 | 1 | 6.2 | 
14 | CCCOc1ccc(/C=C/C(=O)c2ccc(OC)cc2OC)cc1 [DMU-408, (E)-1-(4-propoxyphenyl)-3-(2,4-dimethoxyphenyl)prop-1-en-3-one] | 1.3 | 8 | 10 | 
15 | CCCOc1ccc(/C=C/C(=O)c2cccc(OC)c2)cc1 [DMU-417, (E)-1-(4-propoxyphenyl)-3-(3-methoxyphenyl)prop-1-en-3-one] | 10 | 3 | 28 | 
16 | CCCOc1ccc(/C=C/C(=O)c2ccc(OC)c(OC)c2OC)cc1 [DMU-420, (E)-1-(4-propoxyphenyl)-3-(2,3,4-trimethoxyphenyl)prop-1-en-3-one] | 3.7 | 5 | 20 | 
17 | CCCOc1ccc(/C=C/C(=O)c2cc(OC)ccc2OC)cc1 [DMU-424, (E)-1-(4-propoxyphenyl)-3-(2,5-dimethoxyphenyl)prop-1-en-3-one] | 2 | 6 | 12 | 
18 | CCCOc1ccc(/C=C(\C)C(=O)c2cc(OC)cc(OC)c2)cc1 [DMU-432, (E)-1-(4-propoxyphenyl)-2-methyl-3-(3,5-dimethoxyphenyl)prop-1-en-3-one] | 0.08 | 9 | 0.7 | 
19 | COc1cccc2c1C(=O)c1c(O)c3c(c(O)c1C2=O)C[C@@](O)(C(=O)CO)C[C@@H]3O[C@H]1C[C@H](N)[C@H](O)[C@H](C)O1 [Doxorubicin, doxorubicin] |  |  |  | IC50 [3]: 0.0003 µM; IC50 [4]: 0.003 µM; Tumour Selectivity Differential Factor [4]: 0.1; more toxic to normal cells than to cancer cells ([4]; MCF-10A versus MDA-468): 10 fold
20 | CN(Cc1cnc2nc(N)nc(N)c2n1)c1ccc(C(=O)N[C@@H](CCC(=O)O)C(=O)O)cc1 [Methotrexate, methotrexate] |  |  |  | IC50 [3]: 0.06 µM; IC50 [4]: 0.04 µM; Tumour Selectivity Differential Factor [4]: 1.5
